Like-named read-outs stand apart in the source and are kept apart here.
Assays:
HSV-2 [1] = test: HSV-2 inhibition assay (plaque reduction on Vero cells, pretreatment); format: cell-based, herpes simplex virus type 2; details: for IC50: Human alphaherpesvirus 2, Vero, dose–response, Vero cells
Description: The inhibitory effect of compounds on HSV-2 was evaluated by plaque reduction assay. Vero cells were plated 24 h before the experiment in 24-well plates with a seeding density of 10^5 cells/well. Serial dilutions of compounds in DMEM medium (2% FBS, 1% P/S) were prepared, followed by the addition of aliquots of HSV-2 such that the final titer of the virus was 200 pfu/mL (with MOI = 0.0005). Compounds/virus mixtures were incubated at 37 °C for 1 h and added to the cells (250 μL/well). Followed by incubation at 37 °C for 1 h, the viral inoculum was removed. The cells were overlaid with DMEM medium containing 1.2% methylcellulose, 2% FBS, and 1% P/S. After 48 h of incubation at 37 °C, 5% CO2, the cells were fixed and stained with 0.1% crystal violet in 20% ethanol. Finally, the plaques were counted. Each group of experiments in the inhibition assay was performed in triplicate. The concentration producing a 50% reduction in plaque formation was determined using Prism 10 software (GraphPad Software, USA) by comparing compound-treated and untreated cells. Infectivity was calculated as the number of plaques in compound-treated cells/number of plaques in untreated cells × 100%.

Flu B = test: Influenza inhibition assay (ICC on MDCK cells); format: cell-based; details: dose–response
H1N1N09 = test: Influenza virucidal assay; format: cell-based, Influenza A/Netherlands/602/2009 (H1N1)
HSV-2 [2] = test: Growth of viruses in the presence of compounds (posttreatment), HSV-2; format: cell-based, herpes simplex virus type 2; details: for IC50: Human alphaherpesvirus 2, Vero, posttreatment condition, Vero cells
BSA = target: T1, BSA (Bos taurus, UniProt P02769); test: Isothermal titration calorimetry with BSA; format: binding, bovine; details: ITC
T1 construct: purchased Sigma-Aldrich
T1 sequence (P02769 25-607): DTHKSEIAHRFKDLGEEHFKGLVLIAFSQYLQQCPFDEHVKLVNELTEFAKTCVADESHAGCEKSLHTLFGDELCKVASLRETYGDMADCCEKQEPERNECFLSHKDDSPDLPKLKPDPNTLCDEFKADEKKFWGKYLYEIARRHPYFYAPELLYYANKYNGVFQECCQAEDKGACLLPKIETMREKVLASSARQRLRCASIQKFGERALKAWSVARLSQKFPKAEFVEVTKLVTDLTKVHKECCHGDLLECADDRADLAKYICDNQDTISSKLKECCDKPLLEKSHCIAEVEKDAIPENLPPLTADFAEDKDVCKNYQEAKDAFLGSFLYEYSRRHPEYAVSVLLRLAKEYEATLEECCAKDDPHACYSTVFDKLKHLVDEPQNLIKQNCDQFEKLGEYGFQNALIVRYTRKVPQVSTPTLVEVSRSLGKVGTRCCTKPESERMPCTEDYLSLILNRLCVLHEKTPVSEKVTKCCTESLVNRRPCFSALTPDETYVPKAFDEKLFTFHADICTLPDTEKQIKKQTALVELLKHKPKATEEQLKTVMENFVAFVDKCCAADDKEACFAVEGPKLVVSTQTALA

HSV-2 [3] = tested on: HSV-2; set-up: method as in Zhu et al., 2024 (citation number not given); details: earlier paper of the authors; ref Zhu et al., 2024 (citation number not given); cited from earlier work
HSV-2 [4] = tested on: HSV-2; set-up: method as in Zhu et al., 2024 (citation number not given); details: earlier paper of the authors on benzene-core MEIs; ref Zhu et al., 2024 (citation number not given); read-out: IC50 against HSV-2; cited from earlier work
[5] = H2O, 25 °C (Table 5), read-out: K d (BSA)
[6] = HSV-2 inhibition, concentration intended to inhibit infection by at least 90 and 99%

In the case of `O=S(=O)(O)CCCCCCCCCCCSCc1cc(CSCCCCCCCCCCCS(=O)(=O)O)cc(CSCCCCCCCCCCCS(=O)(=O)O)c1` [B3C11SO3], the IC99 (HSV-2 [1]) is reported as 1092 ± 7.6 µM, the IC50 (HSV-2 [1]) is reported as 88.5 ± 7.6 µM and the IC50 (Flu B) is reported as 324 ± 103 µM. For the same compound, the “Virucidal activity, H1N1N09” value (H1N1N09) was “S”, the “fold reduction in IC50, posttreatment vs pretreatment” value (HSV-2 [2]; HSV-2) was “approximately 9 fold” and the IC50 (HSV-2 [2]) was 10.3 ± 1.17 µM. The “ΔG (BSA)” value (BSA; H2O, 25 °C (Table 5)) was “–7.15 kcal/mol”, the “ΔH (BSA)” value (BSA; H2O, 25 °C (Table 5)) was “–9.08 kcal/mol” and the “–ΔTS (BSA)” value (BSA; H2O, 25 °C (Table 5)) was 1.93 kcal/mol. For the same compound, the Kd (BSA; [5]) was 5.82 µM, the “-∆TS (BSA)” value (BSA; H2O, 25 °C (Table S3)) was 1.93 kcal/mol and the “N (BSA)” value (BSA; H2O, 25 °C (Table S3)) was 1.1. The “∆G (BSA)” value (BSA; H2O, 25 °C (Table S3)) was -7.15 kcal/mol, the “∆H (BSA)” value (BSA; H2O, 25 °C (Table S3)) was -9.08 kcal/mol and the “-∆TS (BSA)” value (BSA; H2O, 37 °C (Table S3)) was 0.272 kcal/mol. The Kd (BSA; H2O, 37 °C (Table S3)) was 4.97 µM, the “N (BSA)” value (BSA; H2O, 37 °C (Table S3)) was 0.838 and the “∆G (BSA)” value (BSA; H2O, 37 °C (Table S3)) was -7.53 kcal/mol. For the same compound, the “∆H (BSA)” value (BSA; H2O, 37 °C (Table S3)) was -9.78 kcal/mol, the “Virucidal activity, V-1” value (HSV-1) was “S” and the “Virucidal activity, H1N1 clinical” value (H1N1 clinical) was “S”. For the same compound, the “Virucidal activity, H3N2” value (H3N2) was “S”, the “Virucidal activity, FluB” value (FluB) was “S” and the “inhibition mechanism with HSV-2” value (HSV-2 [3]) was “virustatic”.
For `O=S(=O)(O)OCCCCCCCCCCCSCc1cc(CSCCCCCCCCCCCOS(=O)(=O)O)cc(CSCCCCCCCCCCCOS(=O)(=O)O)c1` [B3C11SO4], the IC99 (HSV-2 [1]; [6]) was 103.8 ± 8.3 µM, the IC50 (HSV-2 [1]) was 43 ± 8.3 µM and the IC50 (Flu B) was 0.4 ± 0.04 µM. For the same compound, the IC50 (HSV-2 [2]) was 18 ± 1.13 µM, the “ΔG (BSA)” value (BSA; H2O, 25 °C (Table 5)) was “–7.71 kcal/mol” and the “ΔH (BSA)” value (BSA; H2O, 25 °C (Table 5)) was “–5.4 kcal/mol”. The “–ΔTS (BSA)” value (BSA; H2O, 25 °C (Table 5)) was “–2.31 kcal/mol”, the Kd (BSA; [5]) was 2.23 µM and the “-∆TS (BSA)” value (BSA; PBS, 25 °C (Table S3)) was -9.86 kcal/mol. For the same compound, the Kd (BSA; PBS, 25 °C (Table S3)) was 3.8 µM, the “N (BSA)” value (BSA; PBS, 25 °C (Table S3)) was 3.21 and the “∆G (BSA)” value (BSA; PBS, 25 °C (Table S3)) was -7.46 kcal/mol. The “∆H (BSA)” value (BSA; PBS, 25 °C (Table S3)) was 2.46 kcal/mol, the “-∆TS (BSA)” value (BSA; PBS, 37 °C (Table S3)) was -9.8 kcal/mol and the Kd (BSA; PBS, 37 °C (Table S3)) was 1.37 µM. The “N (BSA)” value (BSA; PBS, 37 °C (Table S3)) was 2.58, the “∆G (BSA)” value (BSA; PBS, 37 °C (Table S3)) was -8.32 kcal/mol and the “∆H (BSA)” value (BSA; PBS, 37 °C (Table S3)) was 1.48 kcal/mol. For the same compound, the IC50 (HSV-2 [4]) was 26.2 µM and the “inhibition mechanism with HSV-2” value (HSV-2 [3]) was “virucidal”.
With `O=S(=O)(O)CCCCCCCCCCCSCc1cc2c(cc1CSCCCCCCCCCCCS(=O)(=O)O)OCCOCCOc1cc(CSCCCCCCCCCCCS(=O)(=O)O)c(CSCCCCCCCCCCCS(=O)(=O)O)cc1OCCOCCO2` [C4C11SO3] the IC99 (HSV-2 [1]; [6]) was 408 ± 1.5 µM, the IC50 (HSV-2 [1]) was 18.5 ± 5.2 µM and the IC50 (Flu B) was 7.7 ± 3.75 µM. The IC50 (HSV-2 [2]) was 12.3 ± 0.76 µM, the “N (binding sites, BSA)” value (BSA; H2O, 25 °C (Table 5)) was 2.63 and the “ΔG (BSA)” value (BSA; H2O, 25 °C (Table 5)) was “–6.81 kcal/mol”. For the same compound, the “ΔH (BSA)” value (BSA; H2O, 25 °C (Table 5)) was “–0.934 kcal/mol”, the “–ΔTS (BSA)” value (BSA; H2O, 25 °C (Table 5)) was “–5.88 kcal/mol” and the Kd (BSA; [5]) was 10.3 µM. The “-∆TS (BSA)” value (BSA; PBS, 25 °C (Table S3)) was -2.06 kcal/mol, the Kd (BSA; PBS, 25 °C (Table S3)) was 124 µM and the “N (BSA)” value (BSA; PBS, 25 °C (Table S3)) was 10. The “∆G (BSA)” value (BSA; PBS, 25 °C (Table S3)) was -5.33 kcal/mol, the “∆H (BSA)” value (BSA; PBS, 25 °C (Table S3)) was -1.58 kcal/mol and the “-∆TS (BSA)” value (BSA; PBS, 37 °C (Table S3)) was -7.9 kcal/mol. For the same compound, the Kd (BSA; PBS, 37 °C (Table S3)) was 1.64 µM, the “N (BSA)” value (BSA; PBS, 37 °C (Table S3)) was 2.6 and the “∆G (BSA)” value (BSA; PBS, 37 °C (Table S3)) was -8.21 kcal/mol. The “∆H (BSA)” value (BSA; PBS, 37 °C (Table S3)) was -0.315 kcal/mol.
In the case of `O=S(=O)(O)OCCCCCCCCCCCSCc1cc2c(cc1CSCCCCCCCCCCCOS(=O)(=O)O)OCCOCCOc1cc(CSCCCCCCCCCCCOS(=O)(=O)O)c(CSCCCCCCCCCCCOS(=O)(=O)O)cc1OCCOCCO2` [C4C11SO4], the IC99 (HSV-2 [1]; [6]) is reported as 67.47 ± 5.2 µM, the IC50 (HSV-2 [1]) is reported as 9.8 ± 1.5 µM and the IC50 (Flu B) is reported as 47.9 ± 9.38 µM. For the same compound, the IC50 (HSV-2 [2]) was 4.8 ± 0.7 µM, the “N (binding sites, BSA)” value (BSA; H2O, 25 °C (Table 5)) was 2.5 and the “ΔG (BSA)” value (BSA; H2O, 25 °C (Table 5)) was “–6.07 kcal/mol”. The “ΔH (BSA)” value (BSA; H2O, 25 °C (Table 5)) was “–2.73 kcal/mol”, the “–ΔTS (BSA)” value (BSA; H2O, 25 °C (Table 5)) was “–3.34 kcal/mol” and the Kd (BSA; [5]) was 35.7 µM. The “-∆TS (BSA)” value (BSA; PBS, 25 °C (Table S3)) was -3.6 kcal/mol, the Kd (BSA; PBS, 25 °C (Table S3)) was 161 µM and the “N (BSA)” value (BSA; PBS, 25 °C (Table S3)) was 10. The “∆G (BSA)” value (BSA; PBS, 25 °C (Table S3)) was -5.18 kcal/mol, the “∆H (BSA)” value (BSA; PBS, 25 °C (Table S3)) was -1.58 kcal/mol and the “-∆TS (BSA)” value (BSA; PBS, 37 °C (Table S3)) was -4.71 kcal/mol. The Kd (BSA; PBS, 37 °C (Table S3)) was 8.47 µM, the “N (BSA)” value (BSA; PBS, 37 °C (Table S3)) was 7.6 and the “∆G (BSA)” value (BSA; PBS, 37 °C (Table S3)) was -7.2 kcal/mol. The “∆H (BSA)” value (BSA; PBS, 37 °C (Table S3)) was -2.49 kcal/mol.
